Data on two compounds can be found in US11638716B2, “Compounds, compositions, and methods for the treatment of disease” (F-star Therapeutics, Inc., priority 2017, dated 2023).

pEC50: −log10 of the molar value.

Common to all, as to assay type: cell-based
The subject of one assay is IRF. As to the kind of experiment: In vitro induction of IRF in THP1 dual cells (Lucia reporter, ISG54 promoter). On the procedure: Example 2. In Vitro Induction of IRF and NF-κβ in THP1 Cells
THP1 dual cells grown in complete media were treated with various concentrations of a compound of the present disclosure or DMSO control. Dual cells carry both secreted embryonic alkaline phosphatase (SEAP) reporter gene under the control of an IFN-β minimal promoter fused to five copies of the NF-kB consensus transcriptional response element to measure NF-kB activity and Lucia reporter gene under the control of an ISG54 minimal promoter to measure IRF activity. After 20 h incubation, IRF activity was assessed using QUANTI-luc to measure levels of Lucia and NF-kB activity was determined by measure SEAP levels at 620-655 nm. % induction was calculated from fold change in luminescence/absorbance compared to DMSO treated sample. […] EC50 values were generated by curve fit in Xlfit.
(§1) Cells grown in complete media were treated with various concentrations of a compound of the disclosure or DMSO control. Dual cells carry both secreted embryonic alkaline phosphatase (SEAP) reporter gene under the control of an IFN-β minimal promoter fused to five copies of the NF-kB consensus transcriptional response element to measure NF-kB activity and Lucia reporter gene under the control of an ISG54 minimal promoter to measure IRF activity. After 20 h incubation, IRF activity was assessed using QUANTI-luc to measure levels of Lucia and NF-kB activity was determined by measure SEAP levels at 620-655 nm. % induction was calculated from fold change in luminescence/absorbance compared to DMSO treated sample. EC50 values are generated by curve fit in Xlfit.

The next assay has as its system STING KO cells. Description: IRF and NF-kB reporter activity in STING KO cells. The note with it: 20 hours. On the procedure: FIG. 21 depicts cells stably expressing both or either one of the reporters to measure IRF and NF-kB activity were treated with a range of concentrations of compound 1 or DMSO control for 20 hours. IRF activity was assessed using QUANTI-luc to measure levels of Lucia and NF-kB activity was determined by measure SEAP levels at 620-655 nm. % induction was calculated from fold change in luminescence/absorbance compared to DMSO treated sample. EC50 values are generated by curve fit in Xlfit.
(§2) FIG. 22 depicts cells stably expressing both or either one of the reporters to measure IRF and NF-kB activity were treated with a range of concentrations of compound 2 or DMSO control for 20 hours. IRF activity was assessed using QUANTI-luc to measure levels of Lucia and NF-kB activity was determined by measure SEAP levels at 620-655 nm. % induction was calculated from fold change in luminescence/absorbance compared to DMSO treated sample. EC50 values are generated by curve fit in Xlfit.
(§3) FIG. 24 depicts cells stably expressing both or either one of the reporters to measure IRF and NF-kB activity were treated with a range of concentrations of compound 3 or DMSO control for 20 hours. IRF activity was assessed using QUANTI-luc to measure levels of Lucia and NF-kB activity was determined by measure SEAP levels at 620-655 nm. % induction was calculated from fold change in luminescence/absorbance compared to DMSO treated sample. EC50 values are generated by curve fit in Xlfit.
(§4) FIG. 27 depicts cells stably expressing both or either one of the reporters to measure IRF and NF-kB activity were treated with a range of concentrations of compound 4 or DMSO control for 20 hours. IRF activity was assessed using QUANTI-luc to measure levels of Lucia and NF-kB activity was determined by measure SEAP levels at 620-655 nm. % induction was calculated from fold change in luminescence/absorbance compared to DMSO treated sample. EC50 values are generated by curve fit in Xlfit.
as §1

For a further assay, the target named is T1, wild type STING (Homo sapiens, UniProt Q86WV6, H232R).
T1 construct: expressed in transfected cells; host or cells: THP1-Dual-KI-STING-R232 (made from THP-Dual-STING KO cells)
T1 sequence (Q86WV6 whole entry H232R): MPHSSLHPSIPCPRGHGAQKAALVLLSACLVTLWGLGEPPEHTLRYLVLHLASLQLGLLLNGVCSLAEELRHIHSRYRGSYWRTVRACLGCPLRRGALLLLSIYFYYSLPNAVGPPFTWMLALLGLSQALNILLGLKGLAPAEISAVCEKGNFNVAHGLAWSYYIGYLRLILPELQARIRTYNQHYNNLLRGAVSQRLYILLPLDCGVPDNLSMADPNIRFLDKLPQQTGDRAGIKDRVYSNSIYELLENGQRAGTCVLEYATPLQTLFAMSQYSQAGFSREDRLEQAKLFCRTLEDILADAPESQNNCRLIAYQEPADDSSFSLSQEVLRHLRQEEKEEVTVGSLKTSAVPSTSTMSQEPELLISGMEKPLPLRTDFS
Description: IRF/NF-kB reporter cells, wild type STING. The note with it: 20 hours. On the procedure: as §2, §3, §4
(§5) Cells grown in complete media were treated with various concentrations of a compound of the disclosure or DMSO control. […] After 20 h incubation, IRF activity was assessed using QUANTI-luc to measure levels of Lucia and NF-kB activity was determined by measure SEAP levels at 620-655 nm. % induction was calculated from fold change in luminescence/absorbance compared to DMSO treated sample. […]

Assay [1] addresses T2, R71H-G230A-R293Q (HAQ) variant of hSTING (Homo sapiens, UniProt Q86WV6, G230A/H232R/R293Q/R71H).
T2 construct: THP1-Dual-WT cells express STING-HAQ variant; endogenous in cells; host or cells: THP1-Dual-WT cells
Description: IRF/NF-kB reporter cells, STING HAQ variant. The note with it: 20 hours. The protocol: as §2, §3, §4, §5

T2 sequence (Q86WV6 whole entry R71H/G230A/H232R/R293Q): as the sequence (Q86WV6 whole entry H232R) above, with R71H, G230A, R293Q counted along it

The compound `N.N.Nc1ncnc2c1ncn2[C@@H]1O[C@@H]2COP(=O)(S)O[C@@H]3[C@H](F)[C@@H](COP(=O)(O)O[C@H]2[C@H]1F)O[C@H]3n1ccc(=O)[nH]c1=O` (stereo partly shown) [Compound 3] had a pEC50 with IRF (Homo sapiens, THP-1, 20 h incubation) of more than 7.30. Also, in the assay on STING KO cells, the “IRF activity in STING KO cells” value is “did not induce” and the “NF-κβ in STING KO cells” value is reported as “did not induce”. Besides, the “activity against wild type STING” value on wild type STING is reported as “possess activity”. In assay [1], the “activity against R71H-G230A-R293Q (HAQ) variant of hSTING” value is “possess activity”.

In the assay with IRF (20 h incubation), `CCCCCCCCCCOc1ccc(C(=O)Oc2ccc(CSP3(=O)OC[C@H]4O[C@@H](n5cnc6c(N)ncnc65)[C@H](F)[C@@H]4OP(=O)(O)OC[C@H]4O[C@@H](n5ccc(=O)[nH]c5=O)[C@H](O3)[C@@H]4F)cc2)cc1` (stereo partly shown) [Compound 4] showed a pEC50 of more than 7.30. For the same compound, in the assay on STING KO cells, the “IRF activity in STING KO cells” value is “did not induce” and the “NF-κβ in STING KO cells” value is listed as “did not induce”. Also, the “activity against wild type STING” value at wild type STING was “possess activity”. Moreover, the “activity against R71H-G230A-R293Q (HAQ) variant of hSTING” value in assay [1] was “possess activity”.

Broadly, the pEC50 is the negative decadic logarithm of the EC50, by convention in mol/L. A low value points to a high EC50.
